Literature values in patent US20070065511A1, “Controlled delivery creatine formulations and method of using the same” (priority 2004, published 2007).
Where two headings read alike, the source gives them in different places.

What was measured:
[1] = ingestion of 20 to 30 g per day for several days

For `CN(CC(=O)O)C(=N)N.O` [creatine monohydrate], the “increase in human skeletal muscle total creatine content” value [1] is given as “greater than 20%”.

For `CN(CC(=O)O)C(=N)N` [CRE, creatine], the “SC/fibre, time effect from baseline” value (satellite cell (SC); week 4 of supplementation and resistance training) is listed as 111%, the “SC/fibre, time effect from baseline” value (satellite cell (SC); week 8 of supplementation and resistance training) is listed as 93% and the “SC/fibre compared to baseline” value (satellite cell (SC); week 16) is listed as “no difference”.
